Test results as given in the NIST ThermoML archive (doi:10.1016/j.tca.2008.09.005).
Numbers after ± are expanded uncertainties.

How the values were obtained:
[1] = 298.15 K, 101.33 kPa, Liquid
[2] = refractive index (Na D-line) (dimensionless); conditions: 298.15 K; 101.33 kPa; Liquid; Standard Abbe refractometry

| Structure (SMILES) | mass density ([1]; Vibrating tube method) | refractive index [2] | electrical conductivity [1] |
| --- | --- | --- | --- |
| CN1CCN(C)C1=O [1,3-dimethyl-2-imidazolidinone] | 1052.23 ± 1.2 kg/m3 | 1.4713 ± 0.0008 |  |
| O [water] |  |  | 1.3e-05 ± 1e-06 S/m |
